Values of other authors, collected in patent US8563018B2, “Foamable pesticide compositions” (priority 2009, dated 2013).

How the values were obtained:
termites = conditions: in vivo
ants = conditions: in vivo

N#Cc1nn(-c2c(Cl)cc(C(F)(F)F)cc2Cl)c(N)c1[S+]([O-])C(F)(F)F (racemic) [Fipronil, (±)-5-amino-1-(2,6-dichloro-α,α,α-trifluoro-p-tolyl)-4-trifluoromethylsulfinylpyrazole-3-carbonitrile]
dose toxic to termites (termites): 2 nanograms per termite
dose toxic to ants (ants): about 1 nanogram per ant
